Data: patent US20160113900A1, “INHIBITORS OF MITOCHONDRIAL STAT3 AND USES THEREOF IN MODULATION OF MAST CELL EXOCYTOSIS” (Yissum Research Development Company of the Hebrew …, priority 2014, published 2016)

How the values were obtained:
[1] = tested on: cytochrome c oxidase (COX, complex 4); experiment: ETC complex activity analysis in treated RBL cells: complex 4; format: cell-based, rat; settings: 60 μM Stattic, 30 min
Experimental: (§1) The enzymatic activities of respiratory chain complexes were measured at 37° C. by standard spectrophotometric methods as previously described5, 6. Briefly, complex II was measured as succinate dehydrogenase (SDH) based on the succinate-mediated phenazine methosulfate reduction of dichloroindophenol at 600 nm Complex 2+3 were measured as succinate cytochrome c reductase and after the reduction of oxidized cytochrome c at 550 nm. Complex 4 (cytochrome c oxidase) was measured by following the oxidation of reduced cytochrome c at 550 nm.
(§2) Citrate synthase (CS), an ubiquitous mitochondrial matrix enzyme, serving as a control, was measured in the presence of acetylCoA and oxaloacetate by monitoring the liberation of CoASH coupled to 5′,5′-dithiobis(2-nitrobenzoic) acid at 412 nm. Activities are presented as a ratio to CS. Protein concentration was determined by the Lowry method and calculated according to a bovine serum albumin (BSA) standard curve.

RBL cells [2] = experiment: β-Hexosaminidase release assay (degranulation) in RBL cells; format: cell-based, rat; settings: RBL cells
CBMC = experiment: β-Hexosaminidase release assay (degranulation) in human cord blood-derived mast cells; format: cell-based; settings: 60 μM Stattic 5 min before α-human-IgE, control cells 20.9±4.9
[3] = tested on: succinate cytochrome c reductase (complex 2+3); experiment: ETC complex activity analysis in treated RBL cells: complex 2+3; format: cell-based, rat; settings: 60 μM Stattic, 30 min, ratio to citrate synthase
Experimental: as §1, §2

BMMC [4] = experiment: Measurements of secreted mediators (ELISA) in activated BMMC; format: cell-based, mouse; settings: immunologically activated BMMC, 60 μM Stattic 20 min
Experimental: 1×106 BMMC were immunologically activated as described above. After IgE incubation, the cells were washed three times in PBS and incubated with DNP-albumin (Sigma-Aldrich) for 30 mM in complete growth medium. Supernatant was collected and Granzyme B and TNFα content were measured using ELISA Kits (eBioscience).

plasma histamine = experiment: In vivo histamine release assay, passive systemic IgE-mediated anaphylaxis model
Experimental: C3H 6-7 week male and female WT mice were purchased from Jackson Lab (Cambridge, Mass., USA), mice were fed a regular diet and with drinking water ad libitum. Experiments were approved by The Hebrew University Ethical Committee for Animal Experimentation.
WT C3H mice were sensitized with 3 μg murine IgE anti-DNP mAb SPE-7 by means of intravenous injection in the tail vein. Twenty-four hours later, mice were treated with 40 mg/kg of static dissolved in corn oil or corn oil alone for 2.5 hours, then mice were challenged with i.v. injection of DNP-BSA (250 μg per mouse). 100 μl of blood was collected immediately and added to an equal volume of pre-cold Alsever's Solution. Blood was centrifuged 2000 g for […] and plasma supernatant was collected. Plasma histamine levels were determined by using competitive ELISA (IBL International Gmbh, Hamburg, Germany).
STAT3's role in vivo was investigated by evaluating the response to allergic stimulation in Stattic-treated mice. The passive systemic IgE-mediated anaphylaxis model was used. Mice were injected (i.v.) with IgE anti-DNP. Twenty four hours later they were injected (i.p.) with Stattic (80 mg/kg) or corn oil which was used as control. Three and a half hours later the mice were challenged with DNP-BSA for 1.5 minutes. Plasma was collected, and histamine levels were measured by competitive ELISA. Histamine secretion in Stattic-treated mice was 43% less than that in control mice (FIG. 17, p<0.05).
Mitocur-1/3 effectiveness in vivo was investigated by evaluating the response to allergic stimulation in Mitocur-1/3-treated mice. The passive systemic IgE-mediated anaphylaxis model was used. Mice were injected (i.v.) with IgE anti-DNP. Twenty four hours later they were injected (i.p.) with Mitocur-1 (80 mg/kg) and Mitocur-3 (40 mg/kg). Corn oil was used as control. Three and a half hours later the mice were challenged with DNP-BSA for 1.5 minutes. Plasma was collected, and histamine levels were measured by competitive ELISA. Histamine secretion in Mitocur-1-treated mice was 35% less than that in control mice (FIG. 22A, p<0.05).

BMMC [5] = experiment: ATP determination (ATPLite luminescence) in BMMC; format: cell-based, mouse; settings: 60 μM Stattic, 20 min
Experimental: RBL-2H3 cells were maintained in RPMI 1640 medium as previously described1. Bone marrow was isolated from 5-6 week-old mice, and BMMC were cultured in RPMI medium supplemented with 20 ng/ml interleukin-3 (IL-3) and 20 ng/ml SCF as previously described2, 3. Cells were generally grown for a minimum of 4 weeks and used when >90% of the population expressed FcεRI. BMMC and RBL cells were sensitized first with anti-DNP IgE monoclonal antibody (SPE-7; Sigma-Aldrich Corp.) and then challenged with DNP-BSA (Sigma-Aldrich Corp.). IgE antibody was centrifuged (18,000 g, 5 min) before use to remove aggregates. […] For glycolysis elimination cells were maintained in glucose-free RPMI supplemented with 10% dialyzed fetal calf serum and 5 mM galactose.
ATP levels were measured using the ATPLite luminescence-based assay according to the manufacturer's instructions (Perkin Elmer, Waltham, Mass., USA).

RBL cells [6] = experiment: TNF-α secretion of activated RBL cells; format: cell-based, rat; settings: RBL cells, IgE/DNP-BSA, 60 μM Stattic 20 min
RBL cells [7] = experiment: ATP determination (ATPLite luminescence) in RBL cells; format: cell-based, rat; settings: RBL cells, 60 μM Stattic, 20 min

O=[N+]([O-])c1ccc2c(c1)S(=O)(=O)C=C2 [Stattic, 6-Nitrobenzo[b]thiophene 1,1-dioxide, reference compound]
change in cytochrome c oxidase (COX, complex 4) activity [1]: No significant change | degranulation (RBL cells [2]; 5 min incubation with Stattic (data not shown)): totally abolished | β-hexosaminidase release (RBL cells [2]; IgE/DNP-BSA, 60 μM Stattic 20 min): completely abolished | effect on IgE-Ag mediated β-hexosaminidase release, dependence on concentration (RBL cells [2]; stated concentrations of Stattic (FIG. 6)): concentration dependent | degranulation (β-hexosaminidase release) (CBMC): 3.5±1.9 | reduction in complex 2+3 activity [3]: 50.8±6.1% | Granzyme B secretion (BMMC [4]): greatly reduced | histamine secretion less than in control mice (plasma histamine; Stattic 80 mg/kg i.p., 3.5 h before DNP-BSA challenge): 43% | decrease in histamine secretion (plasma histamine; mice, Stattic 40 mg/kg, after two and a half hours (data not shown)): 32.4% | reduction in ATP levels (BMMC [5]): 76.4±9.3% | TNF-α secretion (RBL cells [6]): completely abolished | reduction in ATP levels (RBL cells [7]): 72.0±9.0%
